Test results reported in paper PMC12247020, “A Cyclized Helix‐Loop‐Helix Peptide as a Molecular Scaffold for Cell‐Membrane Permeable Inhibitors for the Interaction Between Estrogen Receptor α and Coactivator SRC1” (Chembiochem, 2025).
Where two headings read alike, the source gives them in different places. Each block holds one molecule with its values, some of them ahead of it. Bridge positions count the residues as written; N and C are the ends. Peptide text beside a SMILES is read from it. * marks the point of attachment. X1 = CN(C)c1ccc2c(c1)Oc1cc(N(C)C)ccc1C21OC(=O)c2cc(NC(=O)C*)ccc21

Assays:
[1] = test system: MCF‐7 breast cancer cells; experiment: Live cell confocal laser microscopy of TMR‐labeled peptides (cell membrane permeability); conditions: MCF‐7 cells, 3 μM TMR‐labeled peptide
ERα/LBD (ERα302–552) = target: T1, ERα/LBD (ERα302–552) (Homo sapiens, UniProt P03372); experiment: Fluorescence polarization (FP) direct binding of fluorescently labeled peptides to ERα/LBD
T1 construct: Recombinant ERα/LBD (ERα^302–552) was prepared as previously reported; made in house; host or cells: Escherichia coli BL21-CodonPlus-RP
T1 sequence (P03372 302-552): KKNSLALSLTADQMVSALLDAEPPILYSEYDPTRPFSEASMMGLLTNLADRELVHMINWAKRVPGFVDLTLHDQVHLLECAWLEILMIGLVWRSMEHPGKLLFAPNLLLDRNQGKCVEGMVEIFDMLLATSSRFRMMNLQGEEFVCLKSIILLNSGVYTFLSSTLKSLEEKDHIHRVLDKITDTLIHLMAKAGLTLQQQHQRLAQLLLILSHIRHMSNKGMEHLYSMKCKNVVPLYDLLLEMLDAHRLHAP
Protocol: The binding activity of cHLH‐ERα was examined by fluorescence polarization (FP) analysis.^[ [26], [29] ^] The cHLH peptides were labeled with tetramethylrhodamine (TMR) to provide the fluorescent cHLH peptide TMR‐cHLH‐ERα, and fluorescent TMR‐YT1‐RS as a negative control (Figure 1, Figure S2, Supporting Information).
1. Protein Expression and Purification
The plasmid encoding the LBD domain of ERα (ERα302-552), was prepared from the plasmid pF1KB7810 (Kazusa DNA Res. Inst. ) encoding the full length of Estrogen Receptor α as described by using pET -28a(+)vector [1]. […]
4. Fluorescence Polarization […]
Tris-HCl (pH 8.0), 25 mM NaCl, 10%(v/v) Glycerol, 1 mM TCEP as described. The concentration of FL-SRC1Box2 labeled with Fluorescein and TMR-cHLH-ERα and YT1-RS were determined from the absorption of Fluorescein or Tetramethylrhodamine. The respective peptide was incubated with ERα-LBD for 30 min in 20 mM Tris-HCl (pH 8.0), 25 mM NaCl with 1 mM 17β-estradiol, and the mixture was transferred into a 384-well microtiter well (Non-binding, Black, greiner bio -one) and the fluorescence polarization was measured on a spectrofluorometer (SpectraMax iD5, Molecular Devices) at 20 °C. The KD values were analyzed via a quadratic binding equation (Fig S5A, S5B) with the data fit to calculate by using KaleidaGraph 4.0 as described elsewhere. […]

Molecule: CC(C)C[C@@H]1NC(=O)[C@H](C)NC(=O)[C@H](C)NC(=O)[C@H](CC(C)C)NC(=O)[C@H](CCCCN)NC(=O)[C@H](C)NC(=O)[C@H](CCCCN)NC(=O)[C@H](CC(C)C)NC(=O)[C@H](C)NC(=O)[C@H](C)NC(=O)[C@H](CC(C)C)NC(=O)[C@H](CCCCN)NC(=O)CNC(=O)CNC(=O)CNC(=O)CNC(=O)CNC(=O)CNC(=O)CNC(=O)[C@H](CCC(=O)O)NC(=O)[C@H](CC(C)C)NC(=O)[C@H](CCCNC(=N)N)NC(=O)[C@H](CCCNC(=N)N)NC(=O)[C@H](CC(C)C)NC(=O)[C@H](CCC(=O)O)NC(=O)[C@H](CCCNC(=N)N)NC(=O)[C@H](CCC(=O)O)NC(=O)[C@H](CC(C)C)NC(=O)[C@H](CCCNC(=N)N)NC(=O)[C@H](CCCNC(=N)N)NC(=O)[C@H](CC(C)C)NC(=O)[C@H](CCC(=O)O)NC(=O)[C@H](CCCNC(=N)N)NC(=O)[C@H](CSCC(=O)Nc2ccc3c(c2)C(=O)OC32c3ccc(N(C)C)cc3Oc3cc(N(C)C)ccc32)NC(=O)CNC(=O)CSC[C@@H](C(N)=O)NC(=O)[C@H](Cc2ccc(O)cc2)NC(=O)[C@H](C)NC(=O)[C@H](CCCCN)NC1=O [TMR‐YT1‐RS] ({CH2CO}-GC(X1)RELRRLERELRRLEGGGGGGGKLAALKAKLAALKAYC-NH2; thioether N-39)
- cell membrane permeability, confocal laser microscopy, 4 °C ([1]; 4 °C (pre‐chilled medium), fluorescence imaging): showed cell membrane permeability
- cell membrane permeability, confocal laser microscopy, 37 °C ([1]; 5‐min incubation, 37 °C, 5% CO2, nuclei stained with Hoechst 33 342, fluorescence imaging): showed cell membrane permeability

Molecule: CC(C)C[C@@H]1NC(=O)[C@H](C)NC(=O)[C@H](C)NC(=O)[C@H](CC(C)C)NC(=O)[C@H](CCCCN)NC(=O)CNC(=O)CNC(=O)CNC(=O)CNC(=O)CNC(=O)CNC(=O)CNC(=O)[C@H](CCC(=O)O)NC(=O)[C@H](CC(C)C)NC(=O)[C@H](CCCNC(=N)N)NC(=O)[C@H](CCCNC(=N)N)NC(=O)[C@H](CC(C)C)NC(=O)[C@H](CCC(=O)O)NC(=O)[C@H](CCCNC(=N)N)NC(=O)[C@H](CCC(=O)O)NC(=O)[C@H](CC(C)C)NC(=O)[C@H](CCCNC(=N)N)NC(=O)[C@H](CCCNC(=N)N)NC(=O)[C@H](CC(C)C)NC(=O)[C@H](CCC(=O)O)NC(=O)[C@H](CCCNC(=N)N)NC(=O)[C@H](CSCC(=O)Nc2ccc3c(c2)C(=O)OC32c3ccc(N(C)C)cc3Oc3cc(N(C)C)ccc32)NC(=O)CNC(=O)CSC[C@@H](C(N)=O)NC(=O)[C@H](Cc2ccc(O)cc2)NC(=O)[C@H](C)NC(=O)[C@H](CCCCN)NC(=O)[C@H](CC(C)C)NC(=O)[C@H](CC(C)C)NC(=O)[C@H](CC(C)C)NC(=O)[C@H](CC(C)C)NC(=O)[C@H](CCCCN)NC(=O)[C@H](CC(C)C)NC(=O)[C@H](CCCCN)NC1=O [TMR‐cHLH‐ERα] ({CH2CO}-GC(X1)RELRRLERELRRLEGGGGGGGKLAALKLKLLLLKAYC-NH2; thioether N-39)
- Kd (ERα/LBD (ERα302–552)): 0.285 µM

- Kd (ERα/LBD (ERα302–552); FP, 20 nM labeled peptide, in the presence of 17β‐estradiol, 20 mM Tris-HCl pH 8.0, 25 mM NaCl, 30 min, 20 °C, quadratic binding equation (Fig S5A), read-out: K D value, binding to ERα/LBD): 7.8 µM
Molecule: CH3CO-C(FL)QLLTERHKILHRLLQEGSPSD-NH2 (Ac-C(fluorescein)QLLTERHKILHRLLQEGSPSD-NH2; not fully specified; printed as CH3CO-C(FL)QLLTERHKILHRLLQEGSPSD-NH2) [FL‐SRC1Box2, fluorescently labeled SRC1 box 2 peptide with the LXXLL motif, FP tracer, reference compound]
